Each compound was assayed against T1, Signal transducer and activator of transcription 3 (Homo sapiens, UniProt P40763) (assay: Ratio of compound IC50 to 4-(3-((S)-1-((S)-2-((S)-5-amino-1-(benzylamino)-1,5-dioxopentan-2-ylcarbamoyl)pyrrolidin-1-yl)-4-methyl-1-oxopentan-2-ylamino)-3-oxoprop-1-enyl)phenyl dihydrogen phosphate IC50 for Stat3 SH2 domain).
T1 sequence (P40763 whole entry, the tested form may be a part): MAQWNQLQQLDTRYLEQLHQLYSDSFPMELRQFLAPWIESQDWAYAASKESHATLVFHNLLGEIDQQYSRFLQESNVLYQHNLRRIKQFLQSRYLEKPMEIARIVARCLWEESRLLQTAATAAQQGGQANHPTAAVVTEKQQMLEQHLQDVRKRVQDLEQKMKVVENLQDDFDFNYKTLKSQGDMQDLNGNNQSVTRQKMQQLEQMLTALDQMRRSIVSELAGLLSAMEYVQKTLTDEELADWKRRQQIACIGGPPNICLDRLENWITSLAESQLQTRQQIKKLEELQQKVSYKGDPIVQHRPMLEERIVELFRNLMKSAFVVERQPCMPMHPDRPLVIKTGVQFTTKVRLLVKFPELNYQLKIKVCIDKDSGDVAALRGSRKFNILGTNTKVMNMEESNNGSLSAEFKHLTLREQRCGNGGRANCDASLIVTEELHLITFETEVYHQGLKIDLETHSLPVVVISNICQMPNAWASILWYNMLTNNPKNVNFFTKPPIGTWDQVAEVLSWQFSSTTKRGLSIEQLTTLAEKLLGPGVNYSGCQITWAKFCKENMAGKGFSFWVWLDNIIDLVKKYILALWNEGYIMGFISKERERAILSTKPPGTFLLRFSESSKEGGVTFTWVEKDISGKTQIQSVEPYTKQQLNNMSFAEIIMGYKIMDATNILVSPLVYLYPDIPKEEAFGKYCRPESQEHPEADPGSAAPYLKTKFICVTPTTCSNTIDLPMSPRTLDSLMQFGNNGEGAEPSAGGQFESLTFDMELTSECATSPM

Ratio IC50	SMILES
6	CC(C)C[C@H](NC(=O)/C=C/c1ccc(OP(=O)(O)O)cc1)C(=O)N1CCC[C@H]1C(=O)N[C@H](C(=O)NCc1ccccc1)[C@@H](C)OC(N)=O
3	CC(C)C[C@H](NC(=O)/C=C/c1ccc(OP(=O)(O)O)cc1)C(=O)N1CCC[C@H]1C(=O)N[C@@H](COC(N)=O)C(=O)NCc1ccccc1

What follows are compounds tested against T1, Signal transducer and activator of transcription 3 (assay: Inhibition of Stat3 SH2 domain by fluorescence polarization assay).

SMILES	IC50
CC(C)C[C@H](NC(=O)/C=C/c1ccc(OP(=O)(O)O)cc1)C(=O)N1C[C@H]2C[C@H]2[C@H]1C(=O)N[C@@H](CCC(N)=O)[C@@H](C)OCc1ccccc1 (mixture of isomers)	69 nM
CC(C)C[C@H](CCC(N)=O)NC(=O)[C@@H]1CCCN1C(=O)[C@H](CC(C)C)NC(=O)/C=C/c1ccc(OP(=O)(O)O)cc1	4900 nM
CC(C)C[C@H](NC(=O)/C=C/c1ccc(OP(=O)(O)O)cc1)C(=O)N1C[C@H]2C[C@H]2[C@H]1C(=O)N[C@H](C)CCC(N)=O	175 nM
CC(C)C[C@H](NC(=O)/C=C/c1ccc(OP(=O)(O)O)cc1)C(=O)N1C[C@H]2C[C@H]2[C@H]1C(=O)NCCOCc1ccccc1	69 nM
CC(C)C[C@H](NC(=O)/C=C/c1ccc(OP(=O)(O)O)cc1)C(=O)N1CCC[C@H]1C(=O)N[C@@H](CCC(N)=O)COC(N)=O	615 nM
CC(C)C[C@H](NC(=O)/C=C/c1ccc(OP(=O)(O)O)cc1)C(=O)N1CCC[C@H]1C(=O)N[C@@H](CCC(N)=O)CN1CCOCC1	1530 nM
CC(C)C[C@H](NC(=O)/C=C/c1ccc(OP(=O)(O)O)cc1)C(=O)N1CCC[C@H]1C(=O)N[C@@H](CCC(N)=O)CN1CCCCC1	1210 nM
CC(C)C[C@H](NC(=O)/C=C/c1ccc(OP(=O)(O)O)cc1)C(=O)N1CCC[C@H]1C(=O)N[C@@H](CCC(N)=O)CN(Cc1ccccc1)Cc1ccccc1	1080 nM
CC(C)C[C@H](NC(=O)/C=C/c1ccc(OP(=O)(O)O)cc1)C(=O)N1CCC[C@H]1C(=O)N[C@H](CN)CCC(N)=O	1240 nM
CC(C)C[C@H](NC(=O)/C=C/c1ccc(OP(=O)(O)O)cc1)C(=O)N1C[C@H]2C[C@H]2[C@H]1C(=O)NCCCC(N)=O	303 nM
CC(C)C[C@H](NC(=O)/C=C/c1ccc(OP(=O)(O)O)cc1)C(=O)N1CCC[C@H]1C(=O)N[C@H](C)COC(N)=O	797 nM
CC(C)C[C@H](NC(=O)/C=C/c1ccc(OP(=O)(O)O)cc1)C(=O)N1CCC[C@H]1C(=O)N[C@@H](CCC(N)=O)C(C)C	1880 nM
CCCC[C@H](CCC(N)=O)NC(=O)[C@@H]1CCCN1C(=O)[C@H](CC(C)C)NC(=O)/C=C/c1ccc(OP(=O)(O)O)cc1	1350 nM
CC(C)C[C@H](NC(=O)/C=C/c1ccc(OP(=O)(O)O)cc1)C(=O)N1C[C@H]2C[C@H]2[C@H]1C(=O)N[C@@H](CCC(N)=O)C(C)C	511 nM
CC(C)C[C@H](NC(=O)/C=C/c1ccc(OP(=O)(O)O)cc1)C(=O)N1C[C@H]2C[C@H]2[C@H]1C(=O)N[C@@H](CCC(N)=O)C(=O)NCc1ccccc1	68 nM
CC(C)C[C@H](NC(=O)/C=C/c1ccc(OP(=O)(O)O)cc1)C(=O)N1CCC[C@H]1C(=O)NCCOC(N)=O	360 nM
CC(C)C[C@H](CCC(N)=O)NC(=O)[C@@H]1[C@@H]2C[C@@H]2CN1C(=O)[C@H](CC(C)C)NC(=O)/C=C/c1ccc(OP(=O)(O)O)cc1	1630 nM
CC(C)C[C@H](NC(=O)/C=C/c1ccc(OP(=O)(O)O)cc1)C(=O)N1CCC[C@H]1C(=O)N[C@H](COCc1ccccc1)COC(N)=O	454 nM
CC(C)C[C@H](NC(=O)/C=C/c1ccc(OP(=O)(O)O)cc1)C(=O)N1CCC[C@H]1C(=O)N[C@@H](CCC(N)=O)CN1CCN(C)CC1	1310 nM
CC(C)C[C@H](NC(=O)/C=C/c1ccc(OP(=O)(O)O)cc1)C(=O)N1CCC[C@H]1C(=O)N[C@H](C)CNC(N)=O	1350 nM
CC(C)C[C@H](NC(=O)/C=C/c1ccc(OP(=O)(O)O)cc1)C(=O)N1C[C@H]2C[C@H]2[C@H]1C(=O)N[C@@H](CCC(N)=O)COCc1ccccc1	94 nM
CC(=O)NC[C@H](CCC(N)=O)NC(=O)[C@@H]1CCCN1C(=O)[C@H](CC(C)C)NC(=O)/C=C/c1ccc(OP(=O)(O)O)cc1	589 nM
CC(C)C[C@H](NC(=O)/C=C/c1ccc(OP(=O)(O)O)cc1)C(=O)N1CCC[C@H]1C(=O)NCCNC(N)=O	131 nM
CC(C)C[C@H](NC(=O)/C=C/c1ccc(OP(=O)(O)O)cc1)C(=O)N1C[C@H]2C[C@H]2[C@H]1C(=O)N[C@@H](CCC(N)=O)[C@@H](C)O	437 nM
CC(C)C[C@H](NC(=O)/C=C/c1ccc(OP(=O)(O)O)cc1)C(=O)N1CCC[C@H]1C(=O)N[C@@H](CCC(N)=O)Cc1ccc(O)cc1	848 nM

— ChEMBL document CHEMBL1155214, “Structure-affinity relationships of glutamine mimics incorporated into phosphopeptides targeted to the SH2 domain of signal transducer and activator of transcription 3” (J Med Chem, 2009)
